In paper PMC9032385, “A2A Adenosine Receptor Antagonists: Are Triazolotriazine and Purine Scaffolds Interchangeable?” (Molecules, 2022):

Legend:
[1] = molecular target: T1, human recombinant A2AAR (Homo sapiens, UniProt P29274); assay: Radioligand binding at human A2AAR ([3H]NECA displacement, CHO cell membranes)
T1 construct: expressed in transfected cells; membrane preparation
Method: Most of the compounds were also evaluated at A2BARs in a functional study using the GloSensor cAMP assay. […] In the case of A2BARs, Ki-values were calculated from IC50-values determined by the inhibition of NECA-stimulated adenylyl cyclase activity.
Preparation of membranes: Cell membranes for binding assays were prepared mechanically detaching the cells from the petri and suspending them in a cold hypotonic buffer (5 mM Tris/HCl, 2 mM EDTA, pH 7.4). The cell suspension was homogenized (Ultra-Turrax, 2 × 15 s at maximum speed) and the homogenate centrifuged for 10 min (4 °C) to 1000× g. […] The amount of the protein suspension was determined according to the […] using the BCA Protein Assay Kit (Pierce), frozen in liquid nitrogen, and stored at −80 °C.
Binding assays: The dissociation constants of the radioligand (KD) were calculated through saturation assays, while the dissociation constants of the compounds under study (Ki) were determined by competition experiments. All binding data were calculated by nonlinear regression curves using the software GraphPad Prism 5 (GraphPad Software, San Diego, CA, USA). The increasing concentrations of the radioligand saturation binding ([^3H]-CCPA for the A1 receptor subtype, [^3H]-NECA for the A2A receptor subtype, and [^3H]-HEMADO for the A3 receptor) subtype were incubated in a total volume of 250 μL containing 0.2 U/mL of Ado deaminase (ADA) and 12 micrograms of membrane proteins in the specific buffer. In competition experiments for the A1 receptor subtype, each compound was added at increasing concentrations, to the well containing 1 nM of [^3H]-CCPA, to a final volume of 200 μL. The samples were left to incubate for 3 h at room temperature, filtered in a filter 96-well plate (UniFilter GF/C, Perkin-Elmer Life and Analytical Science, Boston, MA) using the FilterMate Cell Harvester (Perkin-Elmer), and washed 3 times with cold distilled water. After drying the filter plate at 40 °C for 30′, they 20 μL of scintillating liquid (Microscint-20, Perkin-Elmer) was added to each well, and then the radioactivity was quantized with the MicroBeta2 Plate Counter (Perkin-Elmer). The conditions for binding experiments at A2A and A3 receptor subtypes were essentially the same as for the A1AR using [^3H]-NECA (N-ethylcarboxyamideAdo) at a concentration of 10 nM and [^3H]-HEMADO (2-(1-hexyne)-N^6-methylAdo) at a concentration of 1 nM as radioligands, respectively. The samples were incubated with 12 micrograms of protein for 3 h at room temperature and filtered as described above.
The non-specific binding was determined in the presence of 1 mM theophylline for the A1AR, or 100 µM R-PIA (N^6-(1-methyl-2-phenylethyl)Ado) for the A2A and A3 receptors.

[2] = tested on: BV-2 murine microglial cells; assay: NO production (Griess assay) in LPS-activated BV-2 cells; format: cell-based; settings: then 100 ng/mL LPS for 24 h
Method: To determine the effects of 13 on LPS-induced inflammatory mediators, we initially evaluated the production of NO. BV-2 cells were treated with different concentrations of 13, then, were exposed to 100 ng/mL LPS for 24 h, and the release of NO in the culture medium was measured by Griess assay (Figure 4B).
Cell Cultures and Treatments: BV-2 murine microglial cells (a gift from Prof. Elisabetta Blasi of the University of Modena and Reggio Emilia, Modena, Italy) were maintained at 37 °C and 5% CO2 in a humidified incubator and grown in DMEM supplemented with 10% (v/v) low-endotoxin fetal bovine serum (Euroclone—Milan, Italy), 2 mM L-glutamine, 50 U/mL penicillin, and 50 μg/mL streptomycin (Sigma-Aldrich–Merck, Milan, Italy). […]
Measurement of NO Production: The amount of nitrite accumulation in the culture medium of BV-2 cells was measured using Griess reagent. […] The NO concentration was evaluated by measuring the absorbance at 540 nm with a 96-well microplate spectrophotometer (VICTOR3 V Multilabel Counter; PerkinElmer). Concentration of nitrites released in the medium was determined from the standard curve generated with known concentrations of sodium nitrite. Results are expressed as mean concentration of nitrites (μM) ± SEM, from three different samples.

[3] = tested on: BV-2 murine microglial cells; assay: MTT viability assay in BV-2 cells; format: cell-based; settings: 24 h, 50–5000 nM, up to 5 μM
Method: First of all, we verified the potential cytotoxicity of 13 in our cell model system. BV-2 cells were treated with increasing concentrations of the compound for 24 h and cell viability was evaluated by MTT assay (Figure 4A).
Cell Cultures and Treatments: BV-2 murine microglial cells (a gift from Prof. Elisabetta Blasi of the University of Modena and Reggio Emilia, Modena, Italy) were maintained at 37 °C and 5% CO2 in a humidified incubator and grown in DMEM supplemented with 10% (v/v) low-endotoxin fetal bovine serum (Euroclone—Milan, Italy), 2 mM L-glutamine, 50 U/mL penicillin, and 50 μg/mL streptomycin (Sigma-Aldrich–Merck, Milan, Italy). Cells were seeded at 50,000 cells/mL in 96-well tissue culture plates for the viability assay, in 6-well tissue culture plates for the Griess assay and RT-PCR assay. BV-2 cells were treated for 24 h with ANR 94 or 13 at different concentrations and then exposed to LPS (100 ng/mL; Sigma-Aldrich–Merck) for a further 24 h.
MTT Viability Assay: MTT assay was performed to quantify the viability of BV-2 cells as previously reported. […] The absorbance was measured at 595 nm using a microplate spectrophotometer (VICTOR3 V Multilabel Counter; PerkinElmer, Wellesley, MA, USA). Data are expressed as a percentage of the control cells, which is considered 100% cell viability.

T1 sequence (P29274 whole entry): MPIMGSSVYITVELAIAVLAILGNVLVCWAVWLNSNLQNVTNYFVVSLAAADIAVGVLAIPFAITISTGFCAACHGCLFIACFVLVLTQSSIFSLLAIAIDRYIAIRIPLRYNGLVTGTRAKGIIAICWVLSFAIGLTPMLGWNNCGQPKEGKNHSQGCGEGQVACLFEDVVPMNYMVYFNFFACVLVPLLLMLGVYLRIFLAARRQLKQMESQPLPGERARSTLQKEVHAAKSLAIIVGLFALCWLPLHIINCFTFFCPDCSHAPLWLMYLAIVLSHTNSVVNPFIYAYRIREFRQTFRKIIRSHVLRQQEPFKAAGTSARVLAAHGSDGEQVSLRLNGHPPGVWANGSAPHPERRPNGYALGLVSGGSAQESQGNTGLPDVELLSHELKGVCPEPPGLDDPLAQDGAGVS

CCn1c(-c2ccco2)nc2c(N)nc(NCCc3ccc(O)cc3)nc21 [compound 13, 4-(2-((6-Amino-9-ethyl-8-(furan-2-yl)-9H-purin-2-yl)amino)ethyl)phenol]
Ki ([1]; displacement of [3H]NECA, CHO membranes, n = 3–5, means ± standard errors): 1.8 nM
selectivity A1/A2A ([1]; ratio of Ki values): 28
selectivity A2B/A2A ([1]; ratio of Ki values): 796
selectivity A3/A2A ([1]; ratio of Ki values): 7
NO level in culture medium vs LPS treated cells ([2]; 1 nM compound): significantly reduced the NO level
NO level in culture medium vs LPS treated cells ([2]; 10 nM compound): significantly reduced the NO level
cytotoxicity (cell viability, MTT) [3]: did not show any cytotoxicity
